Target: T1, CRBN_C287 (Homo sapiens, UniProt Q96SW2)
T1 construct: endogenous in cells; host or cells: cell lysate
Assay: CRBN C287 inhibition, probe labeling in lysate (Example 42)
Format: binding
Settings: 500 uM, lysate, 1 h; read-out: % inh @ 500 uM (CRBN_C287, lysate 1 h)
Method: The following 96-well sample prep protocol was used for sample preparation.
Cells were resuspended in cold PBS on ice and sonicated with a probe sonicator to achieve lysis. 200 μL of lysate containing 5 mg/ml proteome was treated with 2 μL of 100× compound stock in a 2-mL deep-well plate. The treated lysate was subsequently incubate at 25° C. for 1 hr with shaking at 600 rpm. The treated lysate was further incubated with 2 μL of 10 mM desthiobiotin iodoacetamide probe at 25° C. for 1 hr with shaking at 600 rpm. […] 1.7 mL ice-cold acetone was added to each well and incubated at −20° C. for 2 hr, followed by max speed (4200 rpm) spin for 45 min. Acetone was then decanted and the plates were blotted to remove acetone. The plates were then dried in open air for 20 minutes. After drying, the plates were then covered with foil seal and stored at −80° C. overnight.
The next day, samples were re-suspended in 90 μL of solution of 9M urea, 50 mM ammonium bicarbonate and 10 mM DTT by incubating at 65° C. for 20 min with shaking at 1500 rpm. […] The samples were then incubated at 37° C. for 30 min with shaking at 600 rpm.
ZEBA desalting plates were equilibrated 4 times using 250 μL of 2M urea, 50 mM ammonium bicarbonate solution followed by centrifugation at 1500 rpm for 2 minutes. After equilibration was complete, samples were applied to ZEBA desalting plate and spin at 1500 rpm for 2 min on top of 1 mL 96-well deep-well collection plate to buffer exchange samples. 4 μL of solution containing 25 mM CaCl2 and 0.25 mg/mL trypsin was added to the plate and the plate was then incubated at 37° C. for 2 hrs with shaking at 600 rpm. 300 μL of solution containing 5% high-capacity streptavidin agarose slurry in 25 mM Tris-HCl pH 7.5, 150 mM NaCl, and 0.1% NP-40 then added. The plate was incubated at 25° C. for 2 hrs with shaking at 600 rpm. Samples were transferred to 25 μm filter plate and spin at 1000 rpm for 2 min. Samples were then washed 3 times with 0.75 mL of wash buffer (25 mM Tris-HCl pH 7.5, 150 mM NaCl, and 0.1% NP-40) followed by washing 3 times with 0.75 mL PBS, and then 4 times with 0.75 mL water. After the washing step, samples were eluted into polypropylene 96-well plate by addition of 250 μL of 50% MeCN/water, 0.1% formic acid and allowed to gravity drip for 10 min, followed by centrifugation at 1000 rpm for 2 min. Speedvac was used to dry the plates at about 45° C. for […]. Then the plates were covered with foil seal and stored at −20° C.
Then add 30 μL of 0.1% formic acid solution was added and the plate was covered and incubated at 42° C. for 10 minutes with shaking at 600 rpm. Seal plate was then sealed with a 96-well silicon mat for analysis.

T1 sequence (Q96SW2 whole entry): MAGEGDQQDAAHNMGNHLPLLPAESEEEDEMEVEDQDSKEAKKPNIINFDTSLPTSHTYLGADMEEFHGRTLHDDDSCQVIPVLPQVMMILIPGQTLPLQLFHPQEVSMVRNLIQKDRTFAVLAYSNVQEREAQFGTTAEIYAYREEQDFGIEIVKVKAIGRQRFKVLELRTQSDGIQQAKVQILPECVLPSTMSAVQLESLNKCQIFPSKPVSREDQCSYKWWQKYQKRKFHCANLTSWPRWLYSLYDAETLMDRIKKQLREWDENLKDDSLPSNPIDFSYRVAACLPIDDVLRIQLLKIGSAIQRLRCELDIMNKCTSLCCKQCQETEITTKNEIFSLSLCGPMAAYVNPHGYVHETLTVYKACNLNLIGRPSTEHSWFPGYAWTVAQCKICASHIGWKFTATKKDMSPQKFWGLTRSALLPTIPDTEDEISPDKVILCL

Row | inhibition at 500 µM [%] | Compound
1 | 74.8 | C=CC(=O)N1CCC(Oc2cccc(-c3ccc(F)cc3OC)c2)CC1 [Example 1, 1-(4-((4′-fluoro-2′-methoxy-[1,1′-biphenyl]-3-yl)oxy)piperidin-1-yl)prop-2-en-1-one]
2 | 59.8 | C=CC(=O)N1CCC(Oc2cccc(-c3ccccc3OCC)c2)CC1 [Example 2]
3 | 48.9 | C=CC(=O)N1CCC(Oc2cccc(-c3ccccc3O)c2)CC1 [Example 3]
4 | 64.8 | C=CC(=O)N1CCC(Oc2cccc(-c3ccccc3Cl)c2)CC1 [Example 4]
5 | 88.5 | C=CC(=O)N1CCC(Oc2cc(Cl)cc(-c3ccccc3OC)c2)CC1 [Example 5]
6 | 72.2 | C=CC(=O)N1CCC(Oc2cc(Cl)cc(-c3ccccc3)c2)CC1 [Example 6]
7 | 91.2 | C=CC(=O)N1CCC(Oc2cccc(-c3ccccc3OC)c2)CC1 [Example 7]
8 | 76.8 | C#CC(=O)N1CCC(Oc2cccc(-c3ccccc3)c2)CC1 [Example 8]
9 | 88.8 | C#CC(=O)N1CCC(Oc2cccc(-c3ccccc3OC)c2)CC1 [Example 9]
10 | 52.4 | CN(C)C/C=C/C(=O)N1CCC(Oc2cccc(-c3ccccc3)c2)CC1 [Example 10]
11 | 92.9 | COc1ccccc1-c1cccc(OC2CCN(C(=O)/C=C/CN(C)C)CC2)c1 [Example 11]
12 | 87.2 | COc1ccccc1-c1cc(C#N)cc(OC2CCN(C(=O)/C=C/CN3CCOCC3)CC2)c1 [Example 12]
13 | 81.3 | C=CC(=O)N1CCC(Oc2cc(C#N)cc(-c3ccccc3)c2)CC1 [Example 13]
14 | 94.5 | C=CC(=O)N1CCC(Oc2cc(C#N)cc(-c3ccccc3OC)c2)CC1 [Example 14]
15 | 60.4 | C=CC(=O)N1CCC(Oc2cccc(-c3ccccc3OC)c2Cl)CC1 [Example 18]
16 | 68.2 | C=CC(=O)N1CCC(Oc2cccc(-c3ccccc3)c2C#N)CC1 [Example 19]
17 | 57.6 | C=CC(=O)N1CCC(Oc2cccc(-c3ccccc3OC)c2C#N)CC1 [Example 20]
18 | 64.6 | C=CC(=O)N1CCC(Oc2cc(-c3ccccc3OC)ccc2C(N)=O)CC1 [Example 21]
19 | 95.2 | C=CC(=O)N1CCC(Oc2cc(C(N)=O)cc(-c3ccccc3OC)c2)CC1 [Example 22]
20 | 91.1 | C=CC(=O)N1CCC(Oc2cc(OC)cc(-c3ccccc3)c2)CC1 [Example 23]
21 | 89.3 | C=CC(=O)N1CCC(Oc2cc(OC)cc(-c3ccccc3OC)c2)CC1 [Example 24]
22 | 77.4 | C=CC(=O)N1CCC(Oc2cc(C(=O)NC)cc(-c3ccccc3OC)c2)CC1 [Example 26]

Same assay, conditions: CRBN_C287, lysate 1 h

Row | CRBN_C287 inhibition, result in words | Compound
23 | No activity | C=CC(=O)N1CCn2c(nnc2C(F)(F)F)C1
24 | No activity | C=CC(=O)N1CCC(Oc2ccc(-c3ccc(S(C)(=O)=O)cc3)cc2)CC1

Same assay, conditions: TE50, CRBN_C287, lysate 1 h

Row | IC50 [µM] | Compound
25 | 4.66 | C=CC(=O)N1CCC(Oc2cc(C#N)cc(-c3ccccc3OC)c2)C(C)C1 (single isomer, unassigned) [Example 33, 5-((1-acryloyl-3-methylpiperidin-4-yl)oxy)-2′-methoxy-[1,1′-biphenyl]-3-carbonitrile]
26 | 8.97 | C=CC(=O)N1CCC(Oc2cc(C#N)cc(-c3ccccc3OC)c2)C(C)C1 (single isomer, unassigned) [Example 34, 5-((1-acryloyl-3-methylpiperidin-4-yl)oxy)-2′-methoxy-[1,1′-biphenyl]-3-carbonitrile]
27 | 9.8 | C=CC(=O)N1CCC(Oc2cc(C#N)cc(-c3ccccc3OC)c2)C(C)C1 (single isomer, unassigned) [Example 35, 5-((1-acryloyl-3-methylpiperidin-4-yl)oxy)-2′-methoxy-[1,1′-biphenyl]-3-carbonitrile]
28 | 22.2 | C=CC(=O)N1CCC(Oc2cc(C#N)cc(-c3ccccc3CC)c2)CC1 [Example 15]
29 | 0.12 | COc1ccccc1-c1cc(C#N)cc(OC2CCN(C(=O)/C(C#N)=C/C(C)C)CC2)c1 [Example 16]

Reference: patent publication US20220298213A1, “IN VIVO ENGINEERED CEREBLON PROTEIN” (Vividion Therapeutics, Inc., priority 2018, published 2022)
